{
  "source": "patent US11672828B2",
  "about": "“Cellular receptors and uses thereof” (TRUSTEES OF BOSTON UNIVERSITY, priority 2020, dated 2023)",
  "molecules": {"B1": {"name": "biotinamide-specific antibody: antibody from which the anti-biotinamide single chain variable fragment was developed (antibody)", "heavy": "EVQLQQSGAELVKPGASVKLSCTSSGFNNKDTFFQWVKQRPEEGLEWIGRIDPANGFTKYDPKFQGKATITVDTSSNTAYLQLNSLTSEDTALYYCTRWDTYGAAWFAYWGQGTLVTVSAAKTTPPSVYPLAPGSAAQTNSMVTLGCLVKGYFPEPVTVTWNSGSLSSGVHTFPAVLQSDLYTLSSSVTVPSSTWPSETVTCNVAHPASSTKVDKKIVPR", "light": "DIQMTQSPASLSASVGETVTITCRASGNIHNYLSWFQQKQGKSPQLLVYSAKTLADGVPSRFSGSGSGTQYSLKINSLQPEDFGTYYCQHFWSSIYTFGGGTKLEIKRADAAPTVSIFPPSSEQLTSGGASVVCFLNNFYPKDINVKWKIDGSERQNGVLNSWTDQDSKDSTYSMSSTLTLTKDEYERHNSYTCEATHKTSTSPIVKSFNRNEC"}},
  "key": {"anti-Biotin ligand": {"system": "anti-Biotin ligand", "experiment": "Coculture luciferase assay, apSyN/BirA receiver cells with anti-Biotin ligand sender cells, soluble competitors", "format": "cell-based", "conditions": "different concentrations of the molecules in coculture", "procedure": "To examine this behavior more quantitatively, we used an established luciferase-based coculture assay28. Receptor cells were transfected with a luciferase reporter plasmid, and ligand expressing cells were added the next day. Finally cells were lysed after one day of coculturing to examine the luminescence due to luciferase expression (FIG. 3C).\nWe also saw a similar ability to control activation with small molecules in this coculture assay. […] We sought to develop an inhibition method that is specific for this pathway and therefore allow for additional control of signaling without disrupting native pathways. […] We used the previously established coculture assay while culturing cells in different concentrations of the described molecules and then analyzed the corresponding luciferase expression.\nThe luciferase assay used for coculture studies was adapted from Gordon et al28. Synthetic Notch receiver cells were reverse transfected in a 96-well plate (50 k cells per well) with 9.9 ng of UAS:Firefly-Luciferase plasmid and 0.1 ng Nanoluc plasmid per well. 24 hr post-transfection, 80 k sender cells were added to each well. 48 hr post-transfection, cells were lysed (Nano-Glo Dual-Luciferase Reporter Assay System, Promega) and the luminescence was found following the manufacturer's instructions. Each well was normalized to the luminescence output of Nanoluc (transfection control).\nTight-regulation is a requirement of cell-engineered systems in biomedical applications, and such control can be achieved by combining genetic strategies with external drug-control. Thus, it was next sought to design exogenous molecules that could be combined with the present encodable components in order to achieve versatile “chemogenetic” control. Soluble binding proteins can be used to block trans-cellular interactions between endogenous Notch receptors and ligands. It was tested whether soluble biotin-derived compounds could be used to competitively interact between our synthetic ligand and receptor (FIG. 12G). […] In addition to their selective recognition by Anti-Biotinamide, the cell-impermeant nature of biocytin and bis-biotinamide offer the advantageous feature of limiting disruption/inhibition to cell-surface presented components.\nThe luciferase assay used for coculture studies was adapted from Gordon et al^59. Synthetic Notch receiver cells were reverse transfected in a 96-well plate (50 k cells per well) with 9.9 ng of UAS:Firefly-Luciferase plasmid and 0.1 ng Nanoluc plasmid per well. […] 48 hr post-transfection, cells were lysed (Nano-Go Dual-Luciferase Reporter Assay System, Promega) and the luminescence was found following the manufacturer's instructions. Each well was normalized to the luminescence output of Nanoluc (transfection control)."}, "scFab-Gal4 and AP-VP64": {"system": "scFab-Gal4 and AP-VP64", "experiment": "UAS:H2B-mCherry reporter cells with scFab-Gal4, AP-VP64 and BirA, treated with soluble biotinamides", "format": "cell-based", "conditions": "varying concentrations, compared with biocytin", "procedure": "Reporter HEK293 cells with an integrated UAS:H2B-mCherry construct were transfected with a construct containing constitutive expression of AP-VP64 and AntiBiotinamide-scFAB-Gal4. The cells were cotransfected with a construct containing Citrine-HA-BirA. At the time of transfection, samples were incubated with different concentrations of Biocytin and Biotin-cadaverine. Samples were measured the next day with flow cytometry, gating for Citrine expression.\nLastly, it was asked whether intracellular protein complexes could be disrupted using exogenously applied biotinamide. To test this possibility, cells were treated with biocytin as well as biotin-cadaverine, a membrane-permeant biotinamide derivative (6). To measure the disruption of intracellular complexes, BirA was co-expressed alongside scFab-Gal4 and AP-VP64 in UAS:H2B-mCherry reporter cells, and the extent of mCherry expression was quantified from cells treated with varying concentrations of biocytin and biotin-cadaverine (FIG. 18A)."}, "antiBiot synthetic Notch": {"system": "antiBiot synthetic Notch", "experiment": "Plated ligand assay, antiBiot synthetic Notch (Anti-Biotinamide SynNotch) cells", "conditions": "soluble ligand introduced at the time of plating", "description": "We first asked if this synthetic receptor cell line could activate to various ligands coated on a 96 well plate.\nNontreated 96-well plates were coated with Fibronectin (5 ng/mL) and plated ligand in 50 μL PBS for 1-hr. Initial experiments were done with a serial dilution of ligand to determine working concentrations. The wells were rinsed three times with 200 μL PBS, and 40 k synthetic Notch receiver cells were plated in each well. Receptor activation was measured 24 hr post-plating via fluorescence microscopy or flow cytometry.\nCells analyzed with an Attune NxT flow cytometer and were gated for living cells by scatter detection. The percent activation was determined by calculating the percentage of cells with mCherry expression levels above a certain threshold.\nNontreated 96-well plates were coated with Fibronectin (5 ng/mL) and plated ligand in 50 μL PBS for 1 hr. […] Receptor activation was measured 24 hr post-plating via fluorescence microscopy or flow cytometry.\nFlow Cytometry Cells analyzed with an Attune NxT flow cytometer and were gated for single cells by scatter detection (FIGS. 19A-19C). Output files were analyzed with a custom MATLAB (Mathworks) script. The percent activation was determined by calculating the percentage of cells with mCherry expression levels above a determined threshold using the non-transfected control as a guide."}, "apSyN": {"system": "apSyN", "experiment": "Plated ligand assay, apSyN (AP-SynNotch) cells with UAS:H2B-mCherry reporter", "format": "cell-based", "conditions": "for reporter (mCherry) activation by plated ligand: apSyN/AP-SynNotch cells with or without BirA-ER (BirA-KDEL)", "source_text": "In order to determine if the apSyN could undergo predicted signaling mechanics of extracellular binding and intracellular domain release based on the presence of the PTM, we used an established Notch signaling assay23 (FIG. 2A). […] We instead interrogated the signaling capabilities by coating tissue culture wells with an anti-Biotin antibody that is specific for biotinamide24.\nNext to be evaluated were the signaling properties of AP-SynNotch. Here, the activity of the receptor in response to different ligands was compared in cells with and without BirA-KDEL. Using a receptor containing a Gal4-VP64 ICD, the signaling activity of AP-SynNotch was measured in transfected HEK293 cells containing a stably-integrated reporter gene (UAS:H2B-mCherry). In order to stimulate receptor activation, transfected cells were grown on culture surfaces containing immobilized ligands, and reporter expression levels were measured the next day using flow cytometry (FIG. 11D)."}, "avidin": {"system": "avidin", "conditions": "avidin-based systems; cited from earlier work"}, "[1]": {"system": "anti-FITC Synthetic Notch", "experiment": "Coculture of anti-FITC Synthetic Notch cells and anti-biotin ligand cells with biotin-FITC linker (Luciferase reporter)", "format": "cell-based", "conditions": "FIG. 20", "source_text": "FIG. 20 depicts graphs in which the x-axis of the plot is the biotin-FTC concentration, the y-axis is the extent of signaling (via a Luciferase reporter). The legend gives two different sender-cells used in the coculture—one with the anti-biotin ligand, and one without.\nDescribed herein is the use of biotin-FITC as a small-molecule linker with the ability to induce trans-cellular signaling. In this coculture system, a first group of cells expressed an anti-FITC Synthetic Notch, which can bind one end of the biotin-FITC, and a second group of cells expressed an anti-biotin ligand (described in other Examples herein), which binds the other end."}, "[2]": {"system": "Anti-Biotinamide SynNotch", "experiment": "Anti-Biotinamide SynNotch cells on TCO-BSA coated wells with added biotin-tetrazine, flow cytometry", "format": "cell-based", "source_text": "(FIG. 13A). Receptors that are specific to biotinamide process inputs dependent on the biotinylation state of the ligand. (FIG. 13B). Anti-Biotinamide SynNotch expressing cells activate to both biotin-based and desthiobiotin-based substrates. The cells activate with slightly less adsorbed biotin than desthiobiotin. (FIG. 13C). Cells expressing Anti-Biotinamide SynNotch were cocultured with cells transfected with an AP-tagged cell surface ligand with or without BirA, or non-transfected cells. (FIG. 13D). Biotin-tetrazine (4) is a bispecific molecule that will bind to the Anti-Biotinamide antibody fragment and TCO-(5), which is conjugated to BSA. (FIG. 13E). Anti-Biotinamide SynNotch expressing cells cultured on TCO-conjugated BSA will bind to exogenously added biotin-tetrazine. (FIG. 13F). Anti-Biotinamide SynNotch expressing cells were cultured on wells coated with TCO-BSA and one day later, biotin-tetrazine was added at different concentrations to the wells. At two days after plating, cellular fluorescence was analyzed with flow cytometry.\nIn an effort to develop synthetic agonists, a bioorthogonal chemical ligation was also exploited in order to convert a soluble biotin derivative into an immobilized (signaling competent) ligand in situ. […]"}, "[3]": {"conditions": "free biotin versus biotin with an amide linker; cited from earlier work"}},
  "note": "Entries after “also recorded” stand apart in the source; their conditions may differ.",
  "data": [
    {"molecule": "bis-biotinamide", "values": [
      {"measurement": "inhibition of cell signaling (luciferase) by competitive binding to the ligand", "setting": "anti-Biotin ligand", "result": "more potent inhibition"},
      {"measurement": "inhibition of cell signaling (luciferase) by competitive binding to the ligand", "setting": "anti-Biotin ligand; listed as Bis-biotinamide", "result": "increased ability to inhibit cell activation; also recorded: inhibits more effectively"}
    ]},
    {"molecule": "biotin-cadaverine", "values": [
      {"measurement": "inhibition of intracellular biotin-dependent reporter (mCherry) expression", "setting": "scFab-Gal4 and AP-VP64", "result": "more sensitive"},
      {"measurement": "inhibition of intracellular biotin-dependent reporter (mCherry) expression", "setting": "scFab-Gal4 and AP-VP64; listed as Biotin-cadaverine", "result": "effective competitive inhibitor"}
    ]},
    {"molecule": "N[C@@H](CCCCNC(=O)CCCC[C@@H]1SC[C@@H]2NC(=O)N[C@@H]21)C(=O)O", "note": "[biocytin]", "values": [
      {"measurement": "inhibition of cell signaling (luciferase) by competitive binding to the ligand", "setting": "anti-Biotin ligand", "result": "able to inhibit cell signaling to some degree; also recorded: act as inhibitors of signaling"},
      {"measurement": "concentration at which activation was lowered", "setting": "antiBiot synthetic Notch", "result": 3, "unit": "µM"}
    ]},
    {"molecule": "C[C@H](NC(=O)Cc1cc(F)cc(F)c1)C(=O)N[C@H](C(=O)OC(C)(C)C)c1ccccc1", "note": "[DAPT]", "values": [
      {"measurement": "effect of Notch pathway (γ-secretase) inhibitor on mCherry expression", "setting": "apSyN; plated anti-Biotin or anti-myc antibody", "result": "ablated mCherry expression in all cases"}
    ]},
    {"molecule": "C[C@@H]1NC(=O)N[C@@H]1CCCCCC(=O)O", "note": "[desthiobiotin]", "values": [
      {"measurement": "binding constant, fold less than biotin", "setting": "avidin", "result": 106, "unit": "fold"}
    ]},
    {"molecule": "Neutravidin: adsorbed biotin-binding protein", "values": [
      {"measurement": "reporter (mCherry) activation by plated ligand", "setting": "apSyN", "result": "able to activate apSyN cells, but has decreased activation at higher concentrations"},
      {"measurement": "reporter (mCherry) activation by plated ligand", "setting": "apSyN; listed as neutravidin", "result": "can activate the biotinylated receptor"}
    ]},
    {"molecule": "O=C(O)CCCC[C@@H]1SC[C@@H]2NC(=O)N[C@@H]21", "note": "[biotin]", "values": [
      {"measurement": "inhibition of cell signaling (luciferase) by competitive binding to the ligand", "setting": "anti-Biotin ligand", "result": "limited impact on cell signaling"}
    ]},
    {"molecule": "biotin-FITC", "values": [
      {"measurement": "signaling capacity versus concentration", "setting": "[1]", "result": "low concentrations do not induce signaling, and high concentrations lead to lower signaling"}
    ]},
    {"molecule": "biotin-tetrazine", "values": [
      {"measurement": "reporter activation", "setting": "[2]; biotin-tetrazine added one day after plating on TCO-BSA", "result": "able to activate reporter expression only when cultured with biotin-tetrazine"},
      {"measurement": "inhibition of receptor activation", "setting": "[2]; high concentrations of biotin-tetrazine", "result": "inhibited with high concentrations"}
    ]},
    {"molecule": "B1", "values": [
      {"measurement": "binding specificity", "setting": "[3]", "result": "does not bind to free biotin but binds to biotin with an amide linker"}
    ]}
  ]
}
